Experimental findings from article PMC6095874, “Discovery of cationic nonribosomal peptides as Gram-negative antibiotics through global genome mining” (Nature Communications, 2018) are described below.

Values after ≈ are worked out from the molar mass of the structure shown. Like-named read-outs stand apart in the source and are kept apart here. Where a SMILES comes first, the peptide text is derived from it. Bridges are numbered along the chain shown (N, C = ends). [ ]: non-standard residue; d: D form. The star is where a group is joined. X1 = CC[C@H](C)CCCCC(=O)*; Dab = NCC[C@H](N)C(=O)O

Experiment [1] has as its system Pseudomonas aeruginosa PAO1. Type of experiment: cell-based. Here is the method: (§1) MIC was determined by broth microdilution according to CLSI guidelines. The test medium for most species was Mueller–Hinton broth (MHB). Bacteria were grown overnight to early stationary phase and adjusted in MHB to 5.0 × 10^5 c.f.u. mL^−1 in the wells of 96-well microtiter plates (Falcon® 96-Well Flat-Bottom Microplate, Tissue Culture-Treated), mixed with varying concentrations of test compounds and incubated at 37 °C for 24 h. Cell growth was evaluated by measuring the optical density at 595 nm (Thermo Scientific Multiskan FC multiplate photometer) (Waltham, MA, USA), and the MIC was defined as the lowest compound concentration at which no bacterial growth was observed. MHBs containing 10% fetal bovine serum (Gibco), 21 mM MgCl, or 1.0 mg mL^−1 LPS (lipopolysaccharides from E. coli O55:B5, Sigma-Aldrich) was used to test their inhibitory effects.

In experiment [2] the test system is Escherichia coli ATCC 25922. Nature of the experiment: microbe, parasite or virus in culture. Type of experiment: cell-based. Here is the method:
as §1

The subject of experiment [3] is Colistin-resistant E. coli (E. coli ATCC 25922 carrying mcr-1). The experiment is described as follows: MIC by broth microdilution. The following applies: MHB, 37 °C, 24 h. Format: cell-based, Escherichia coli. How it is done: as §1
(In general: Broth dilution looks for growth in wells or tubes with falling amounts of substance.)

Experiment [4] deals with K. pneumoniae NRRL-B-3521. Format: cell-based, Klebsiella pneumoniae. To be noted: broth microdilution, MHB, 37 °C, 24 h. How it is done:
as §1

The next experiment relates to Saccharomyces cerevisiae. Type of experiment: cell-based. The following applies: broth microdilution.
For experiment [5], the system named is Staphylococcus aureus (MRSA). Type of experiment: cell-based. The following applies: Supplementary Table 1; MRSA = Methicillin-resistant Staphylococcus aureus ATCC 43300. How it is done: as §1
A further experiment concerns Candida albicans. Type of experiment: cell-based. To be noted: broth microdilution.
A short description of experiment [6]: Peptide binding to LPS by isothermal titration calorimetry. Also on record: species or system Escherichia coli. To be noted: 37 °C, 20 mM HEPES pH 7.0. Here is the method: Microcalorimetric experiments of peptide binding to LPS were performed on an MCS isothermal titration calorimeter (Microcal, Northampton, MA) at 37 °C. LPS was prepared as a 50 µM aqueous suspension in 20 mM HEPES buffer (pH 7.0) by suspension, sonication, and temperature cycling between 5 and 70 °C. This suspension was stored at 4 °C overnight prior to use. Aliquots of 100 µM peptide solutions (brevicidine and polymyxin B) were prepared in the same buffer and all solutions were degassed prior to use by stirring under vacuum for 5 min at 37 °C. After thermal equilibration, 5 µL aliquots of the peptide solution were added every 3 min into the lipid-containing cell at 37 °C with constant stirring. The change in heat during the titration steps was registered in real time and raw data were processed using the Origin® 7 software provided with the instrument. In control experiments, the corresponding peptide solution (or LPS solution) was injected into the buffer without LPS (or without peptide).
(Isothermal titration calorimetry measures the heat released or taken up as one component is titrated into another.)

The subject of experiment [7] is Enterobacter cloacae NRRL-B-413. Nature of the experiment: MIC by broth microdilution. Type of experiment: cell-based. To be noted: Supplementary Table 1; En = Enterobacter cloacae NRRL-B-413. How it is done: as §1
A further experiment concerns Bacillus subtilis 168. Nature of the experiment: MIC by broth microdilution. The following applies: Supplementary Table 1; Bs = B. subtilis 168. Format: cell-based. Here is the method:
as §1

The next experiment relates to Acinetobacter baumannii. Nature of the experiment: MIC by broth microdilution. Type of experiment: cell-based. The following applies: Supplementary Table 1. Here is the method:
as §1

For experiment [8], the system named is Klebsiella pneumoniae NRRL-B-408. The experiment is described as follows: MIC by broth microdilution. Format: cell-based. To be noted: Supplementary Table 1; Kp = Klebsiella pneumoniae NRRL-B-408. Here is the method: as §1
The test system of a further experiment is E. cloacae NRRL-B-425. Type of experiment: cell-based, Enterobacter cloacae. The following applies: broth microdilution, MHB, 37 °C, 24 h. How it is done:
as §1

A further experiment has as its system E. coli TOP10 cells. Nature of the experiment: Time-kill assay. Format: cell-based, Escherichia coli. How it is done: An overnight culture of E. coli TOP10 cells was diluted 1:10,000 in MHB and incubated at 37 °C with agitation at 180 rpm for 2 h (early exponential). The bacteria were then challenged with brevicidine (20 μg mL^−1), laterocidine (20 μg mL^−1), or polymyxin B (10 μg mL^−1) at ten times the MIC at room temperature without shaking. An untreated sample of cells was used as a negative control. At intervals, 10 μL aliquots were removed, centrifuged at 10,000 × g for 1 min and resuspended in 1.0 mL of sterile PBS. Tenfold serially diluted suspensions were plated on MHB agar plates and incubated at 37 °C overnight. Colonies were counted and the number of c.f.u. per mL was calculated. For analysis of lysis, 300 μL of culture (OD600 = 1.0) were treated with antibiotics at ten times the MIC for 24 h. Experiments were performed in triplicate.

Another experiment concerns E. coli ATCC 25922. Nature of the experiment: Resistance acquisition during serial passaging. Format: cell-based, Escherichia coli. To be noted: subinhibitory concentrations, 30-day period, MHB, 37 °C, quadruplicate. How it is done: E. coli ATCC 25922 was inoculated into MHB overnight at 37 °C with continuous shaking. Cells were diluted 10,000 times in MHB to about 1 × 10^6 c.f.u. mL^−1. Ten µL aliquots were drawn to a 96-well plate containing 90 µL of serially diluted brevicidine, laterocidine, and ciprofloxacin, at final concentrations of 0.5×, 1×, 1.5×, 2×, and 4× MIC. […] Plates with bacteria were incubated at 37 °C without shaking. […] This process was repeated for 30 days, and the final MIC was confirmed by the same antibacterial assay as the one described above. The experiment was performed in quadruplicate, and on each day, the sample that developed the highest resistance was measured to plot the curve. For single-step resistance, E. coli ATCC 25922 cells at 10^8 c.f.u. were plated onto Mueller–Hinton agar containing 4× MIC of brevicidine.

With `CC[C@H](C)CCCCC(=O)N[C@@H](CCN)C(=O)N[C@H](C(=O)N[C@@H](CCN)C(=O)N[C@H]1CCNC(=O)[C@H]([C@@H](C)O)NC(=O)[C@H](CCN)NC(=O)[C@H](CCN)NC(=O)[C@H](CC(C)C)NC(=O)[C@@H](CC(C)C)NC(=O)[C@H](CCN)NC1=O)[C@@H](C)O` [Colistin, reference compound] (X1-[Dab]T[Dab][Dab][Dab][dL]L[Dab][Dab]T; lactam 4-C (inferred); N-terminus assumed), the MIC was determined as 1 µg/mL (≈ 0.855 µM) in experiment [1] (broth microdilution, MHB, 37 °C, 24 h); 2 µg/mL (≈ 1.71 µM) in [2] (broth microdilution (CLSI), MHB, 5.0 × 10^5 c.f.u. mL^−1, 37 °C, 24 h, OD 595 nm); 16 µg/mL (≈ 13.7 µM) in experiment [3].

Regarding `C[C@H]1COc2c(N3CCN(C)CC3)c(F)cc3c(=O)c(C(=O)O)cn1c23` [Levofloxacin], in experiment [2] (Escherichia coli, ATCC25922, positive control of the mouse thigh model infected with E. coli ATCC 25922, strain for MIC not stated explicitly, read-out: MIC), the MIC is 0.032 µg/mL (≈ 0.0886 µM).

For the compound `CC[C@H](C)CCCCC(=O)N[C@@H](CCN)C(=O)N[C@H](C(=O)N[C@@H](CCN)C(=O)N[C@H]1CCNC(=O)[C@H]([C@@H](C)O)NC(=O)[C@H](CCN)NC(=O)[C@H](CCN)NC(=O)[C@H](CC(C)C)NC(=O)[C@@H](Cc2ccccc2)NC(=O)[C@H](CCN)NC1=O)[C@@H](C)O` [Polymyxin B, reference compound] (X1-[Dab]T[Dab][Dab][Dab][dF]L[Dab][Dab]T; lactam 4-C (inferred); N-terminus assumed), the MIC is 2 µg/mL (≈ 1.66 µM) in [4]; above 64 µg/mL against Saccharomyces cerevisiae; above 64 µg/mL in the experiment with Candida albicans; 64 µg/mL (≈ 53.2 µM) with E. cloacae NRRL-B-425; 16 µg/mL (≈ 13.3 µM) in experiment [3]. The “MIC, Pa” value in [1] (Supplementary Table 1, Pa = Pseudomonas aeruginosa PAO1) was 1 µg/mL (≈ 0.831 µM). Moreover, the “MIC, MRSA” value in experiment [5] stood at 32 µg/mL (≈ 26.6 µM). The “binding to LPS (ITC)” value in [6] is given as “strong binding to LPS”. Moreover, the “MIC, En” value in experiment [7] is 8 µg/mL (≈ 6.65 µM). Besides, the “MIC, Bs” value with Bacillus subtilis 168 amounted to 4 µg/mL (≈ 3.32 µM). Moreover, the “MIC, Ab” value against Acinetobacter baumannii was determined as 4 µg/mL (≈ 3.32 µM). Besides, the “MIC, Kp” value in experiment [8] came out at 16 µg/mL (≈ 13.3 µM). Further, the “MIC, Ec” value in experiment [2] (Supplementary Table 1, Ec = Escherichia coli ATCC 25922) is 1 µg/mL (≈ 0.831 µM). Also, the “time to kill all cells in time-kill assay” value with E. coli TOP10 cells (ten times the MIC (polymyxin B 10 μg mL^−1)) is reported as at most 30 min. Besides, in the experiment on E. coli TOP10 cells (ten times the MIC, early exponential cells, room temperature, c.f.u. counts, triplicate), the “cell viability in time-kill assay” value is “significantly reducing the viable cell population after 5 min”.

On to `O=C(O)c1cn(C2CC2)c2cc(N3CCNCC3)c(F)cc2c1=O` [ciprofloxacin, reference compound], for which the “resistance development during serial passaging” value in the experiment with E. coli ATCC 25922 is on record as “developed resistance”.
